One test concerns A549 NSCLC. In words: growth of human tumour cells (NCI), 48 h.
The next test deals with SF-268 CNS. In words: growth of human tumour cells (NCI), 48 h.

Among the data in PubChem BioAssay (NCI) are TGI values, retold here.

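Each compound was tested at five concentrations against cells in 96-well plates for 48 hours. TGI: concentration producing complete growth inhibition.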 Where a SMILES comes first, the peptide text is derived from it. The star is where a group is joined. Boc = CC(C)(C)OC(=O)*; OBn = c1ccc(CO*)cc1

For `CC1=NN(C(=O)CC(=O)Nc2ccc(C)cc2)C(=O)C1N=Nc1ccc(C(=O)O)cc1` (centres undefined), the TGI with A549 NSCLC and with SF-268 CNS was above 100 µM each time.

Turning to `CCN(CC)CCC(=O)NC1c2ccc(Cl)cc2Oc2c(C)cccc21` (centres undefined), the TGI in the test with A549 NSCLC was 33.3 µM; in the test with SF-268 CNS, 38.9 µM. With `Cc1oc2c(c1C)S(=O)(=O)C(C#N)C(c1ccccc1)N2` (centres undefined), the TGI in the test on A549 NSCLC and with SF-268 CNS was above 100 µM in each case. As to `Cc1ccc2nc(CN3CCCC(O)C3)cc(=O)n2c1` (centres undefined), the TGI in the test on A549 NSCLC and with SF-268 CNS was above 100 µM each time. Turning to `CCOC(=O)C(SCCO)C(C(=O)OCC)n1cnc2c(N)ncnc21` (centres undefined), the TGI is above 100 µM in the test with A549 NSCLC and 35.9 µM with SF-268 CNS.

As to `Cc1csc2nc3c(cnn3C)c(=S)n12`, the TGI in the test with A549 NSCLC and in the test on SF-268 CNS was above 100 µM each time.

Regarding `Cc1ccc(-n2cnc3c(N)nc(N)nc32)cc1`, the TGI with A549 NSCLC and in the test on SF-268 CNS was above 100 µM throughout. Consider `COc1ccc(Nc2nnc(CCCCCCCCc3nnc(Nc4ccc(OC)cc4)o3)o2)cc1`, for which the TGI in the test on A549 NSCLC and with SF-268 CNS was above 100 µM in each case. `Cc1c(C)c2c(c(N)c1C#N)C(=O)N(CCc1ccccc1)C2=O`: the TGI in the test with A549 NSCLC and in the test with SF-268 CNS was above 100 µM in each case. The molecule `COc1nc(C)nc2sc3c(c12)CCCC3` returned a TGI in the test with SF-268 CNS above 100 µM. Take `CC(=O)C(=[N+]=[N-])C(=O)NCC#N`: the TGI with A549 NSCLC and with SF-268 CNS was above 10 µM in each case. Regarding `COc1ccc2cc(Oc3ccc(Cl)cc3)c(=O)oc2c1`, the TGI in the test with A549 NSCLC and with SF-268 CNS was above 100 µM each time. Consider `COC(=O)Nc1nc2ccc(S(=O)(=O)NC(CC(C)C)C(=O)OC)cc2[nH]1` (centres undefined), for which the TGI with A549 NSCLC and in the test with SF-268 CNS was above 100 µM throughout. As to `COc1cccc(OC/C(N=Cc2cccnc2)=N/NC(=O)c2ccncc2)c1`, the TGI in the test on A549 NSCLC and in the test on SF-268 CNS was above 100 µM throughout.

On to `CCC(Sc1cc(Cl)c(C)cc1S(=O)(=O)Nc1nc(N)nc(N(C)C)n1)C(=O)O` (centres undefined), for which the TGI with A549 NSCLC and with SF-268 CNS was above 10 µM in each case. Take `OC(CCN1CCCCC1)(c1ccccc1)c1ccccc1`: the TGI in the test on A549 NSCLC and in the test with SF-268 CNS was above 100 µM in each case. For `Cc1cc(C)nc(NS(=O)(=O)c2ccc(Nc3c4ccccc4nc4c(C(=O)NNCCO)cccc34)cc2)n1`, the TGI in the test with A549 NSCLC and in the test on SF-268 CNS was above 100 µM in each case.

Turning to `O=C(c1ccccc1)c1ccc2nc3n(c2c1)C(c1c(F)cccc1F)SC3` (centres undefined), the values for the TGI in the test on A549 NSCLC and in the test with SF-268 CNS were above 84.8 µM and above 70.2 µM, respectively.

On to `CO[C@H]1c2cccc3cccc(c23)[C@@H]1n1[nH]c(=O)n(C(C)(C)C)c1=O`, for which the TGI in the test with A549 NSCLC and in the test with SF-268 CNS was above 100 µM each time.

For `CC12CCC3[C@@H](CC3(C)C)C(O)(CCC1=O)C2` (some centres undefined), the TGI in the test with A549 NSCLC and in the test on SF-268 CNS was above 100 µM in each case. As to `N#CC(C#N)N=Cc1ccncc1`, the TGI in the test on A549 NSCLC and in the test with SF-268 CNS was above 100 µM throughout. In the case of `CCN(CC)C(=C(C(Cl)=C(Cl)Cl)[N+](=O)[O-])N(CC)CC`, the TGI in the test on A549 NSCLC and in the test on SF-268 CNS was above 100 µM each time. For `O=c1[nH]n(Cc2ccccc2Cl)c2ccc([N+](=O)[O-])cc12`, the TGI with A549 NSCLC and in the test with SF-268 CNS was above 100 µM in each case. For the molecule `CN(C)C=Nc1cccc2nsnc12`, the TGI in the test with A549 NSCLC and in the test with SF-268 CNS was above 100 µM throughout. Turning to `O=C(O)c1ccc(P(=O)(O)c2ccc(C(=O)O)cc2Br)c(Br)c1`, the TGI in the test on A549 NSCLC and with SF-268 CNS was above 100 µM throughout. Turning to `O=c1[nH]c(C23CC4CC(CC(C4)C2)C3)cc2c1c(=O)oc1ccccc12`, the TGI is 9.71 µM in the test with A549 NSCLC and 9.52 µM in the test on SF-268 CNS. For `Cc1oc2c(c1C)S(=O)(=O)C(C#N)=C(c1ccccc1)N2` the same measures were above 100 µM and above 100 µM. Turning to `CNc1c2cccc(C)c2nc2c(C(=O)NCCN(C)C)cccc12`, the results for the TGI with A549 NSCLC and in the test with SF-268 CNS were 0.331 µM and 0.318 µM, respectively. As for `CCOC(=O)C1=CN/C(=C(/C)C(=O)OC)SC1C(=O)OCC` (centres undefined), the TGI in the test with A549 NSCLC and in the test on SF-268 CNS was above 100 µM throughout. Consider `O=C(c1cc(Cl)cc(Cl)c1)N(C(=O)N1CCN(c2ccccc2)CC1)c1ccccc1`, for which the TGI in the test on A549 NSCLC and with SF-268 CNS was above 100 µM in each case.

As for `COc1ccc(OC)c2sc(N3C(=O)/C(=C/c4ccc(Cl)cc4)N=C3c3ccccc3)nc12`, the TGI in the test on A549 NSCLC and in the test on SF-268 CNS was above 100 µM throughout.

Regarding `CCN(CC)c1cc2c3c(c1)CCCN3CCC2`, the TGI with A549 NSCLC and with SF-268 CNS was above 10 µM each time.

On to `CCOC(=O)NNC(=O)C1CSC(c2ccccc2)N1C(C)=O` (centres undefined), for which the TGI in the test on A549 NSCLC and with SF-268 CNS was above 100 µM each time.

As to `COc1cc(C2SCC(=O)N2c2ccccc2Cl)cc(OC)c1OC` (centres undefined), the TGI in the test with A549 NSCLC and in the test with SF-268 CNS was above 100 µM in each case. Consider `OC1(CCc2ccccc2)COC(C(F)(F)F)(C(F)(F)F)C1` (centres undefined), for which the TGI in the test on A549 NSCLC and with SF-268 CNS was above 100 µM in each case.

As for `CN(C)c1ccc(/C=N\NC(=O)c2ccccc2Nc2ccccc2C(=O)N/N=C/c2ccc(N(C)C)cc2)cc1`, the TGI with A549 NSCLC and with SF-268 CNS was above 100 µM in each case. Consider `O=C1NC(=O)C(Cc2ccccc2)(c2cccnc2)N1` (centres undefined), for which the TGI in the test on A549 NSCLC and in the test with SF-268 CNS was above 100 µM in each case. On to `CC(C)C(NC(=O)C(Cc1ccccc1)NC(=O)OC(C)(C)C)C(=O)NCC(=O)OCc1ccccc1` (stereo not drawn) (Boc-Phe-Val-Gly-OBn; configuration not given here), for which the TGI in the test with SF-268 CNS stood at 28.2 µM.
